Laboratory results taken from patent USRE37781E1, “Substituted cyclic carbonyls and derivatives thereof useful as retroviral protease inhibitors” (DuPont Pharmaceuticals Company, priority 1991, dated 2002).
Values after ≈ are worked out from the molar mass of the structure shown. Like-named read-outs stand apart in the source and are kept apart here.

Key:
HIV-1 (RF) in MT-2 cells = experiment: microbe, parasite or virus in culture; assay type: cell-based
Method: DNA Plasmids and in vitro RNA transcripts:
Plasmid pDAB 72 containing both gag and pol sequences of BH10 (bp 113-1816) cloned into PTZ 19R was prepared according to Erickson-Viitanen et al. AIDS Research and Human Retroviruses 1989, 5, 577. The plasmid was linearized with Bam HI prior to the generation of in vitro RNA transcripts using the Riboprobe Gemini system II kit (Promega) with T7 RNA polymerase. Synthesized RNA was purified by treatment with RNase free DNAse (Promega), phenol-chloroform extraction, and ethanol precipitation. RNA transcripts were dissolved in water, and stored at −70° C. The concentration of RNA was determined from the A260.
Biotinylated capture probes were purified by HPLC after synthesis on an Applied Biosystems (Foster City, Calif.) DNA synthesizer by addition of biotin to the 5′ terminal end of the oligonucleotide, using the biotin-phosphoramidite reagent of Cocuzza, Tet. Lett. 1989, 30, 6287. The gag biotinylated capture probe (5-biotin-[…] 3′) was complementary to nucleotides 889-912 of HXB2 and the pol biotinylated capture probe (5′-biotin-[…] 3′) was complementary to nucleotides 2374-2395 of HXB2. Alkaline phosphatase conjugated oligonucleotides used as reporter probes were prepared by Syngene (San Diego, Calif.). The pol reporter probe (5′ […] 3′) was complementary to nucleotides 2403-2425 of HXB2. The gag reporter probe (5′ […] 3′) was complementary to nucleotides 950-973 of HXB2. All nucleotide positions are those of the GenBank Genetic Sequence Data Bank as accessed through the Genetics Computer Group Sequence Analysis Software Package (Devereau Nucleic Acids Research 1984, 12, 387). The reporter probes were prepared as 0.5μM stocks in 2× SSC (0.3M NaCl, 0.03M sodium citrate), 0.05M Tris pH 8.8, 1 mg/mL BSA. The biotinylated capture probes were prepared as 10 μM stocks in water.
Streptavidin coated plates:
Nunc-immunomodule microtiter plate strips were coated by addition of 200 μL of streptavidin (30 ug/mL, Scripps, La Jolla, Calif.) in freshly prepared 10 mM sodium carbonate (pH 9.6). Plates were incubated overnight at 4° C. Streptavidin solution was aspirated from the wells and a blocking buffer composed of phosphate buffered saline (PBS), 20 mg/mL bovine serum albumin (crystalline, nuclease and protease free, Calbiochem) and 100 mg/mL lactose (Sigma) was added to the plates for 3 hrs at room temperature. Blocking buffer was removed from the wells, which were allowed to dry overnight at room temperature and subsequently stored at 4° C. in zip lock bags with desiccant. For the majority of the compound evaluation experiments, streptavidin coated plates were obtained from Du Pont Biotechnology Systems (Boston, Mass.).
MT-2, CEM, and H9 cells were maintained in RPMI 1640 supplemented with 5% fetal calf serum (FCS), 2 mM L-glutamine and 50 μg/mL gentamycin, all from Gibco. Laboratory strains of HIV-1 (RF, MN and IIIB) were propagated in H9 cells in the same medium. Virus stocks were prepared approximately 1 month after acute infection of H9 cells by clarification of the tissue culture medium and storage of aliquots at −70° C. […] Each aliquot of virus stock used for infection was thawed only once. In some cases, infected H9 cells were shifted to Dulbecco's modified Eagle's medium 3-10 days before collection of virus in order to generate virus stocks in medium with low biotin content. Clinical isolates of HIV that had been passaged once in MT-2 cells were used to infect fresh MT-2 cells in RPMI medium. Three days after infection, cells were pelleted, resuspended and culture continued in Dulbecco's modified Eagle's medium as above. Virus stocks of clinical isolates were prepaid 10-15 days after infection when cytopathic effects were apparent in the culture.

[1] = target: single-chain tethered dimer of HIV protease (Human immunodeficiency virus 1, UniProt P04585); experiment: biochemical; assay type: biochemical; parameters: fused on or other part: A second copy of the same protease unit is joined to the first by a short peptide tether, giving one polypeptide
[2] = Human immunodeficiency virus 1, MT2, 48 h, Table 2d, class symbols, read-out: IC90
[3] = read-out: HPLC K1, Table 2d, class symbols
[4] = Table 2d, HIV protease inhibition, HPLC method, read-out: HPLC K1
[5] = Human immunodeficiency virus 1, MT2, 48 h, Table 2d, HIV RNA assay, read-out: IC90
[6] = read-out: HPLC K1, Table 2d, HIV protease inhibition, HPLC method
[7] = Table 2d, class symbols, read-out: HPLC K1

SMILES: O=P1(Oc2ccccc2)N[C@H](Cc2ccccc2)[C@H](O)[C@@H](O)[C@@H](Cc2ccccc2)N1 (some centres unmarked) [28A]
- IC90 (HIV-1 (RF) in MT-2 cells; Table 2r): ++ (++=10 to 100 μg/mL)
- Ki ([1]; Table 2r, read-out: Ki HPLC): > 1 µM

SMILES: O=C1N(CCCCCO)C(Cc2ccccc2)C(O)C(O)C(Cc2ccccc2)N1Cc1ccc(CO)cc1 (centres unmarked) [Example 15VK]
- IC90 (HIV-1 (RF) in MT-2 cells; [2]): < 10 µg/mL
- Ki [1, 3]: < 0.01 µM

SMILES: O=C(O)CCCCCN1C(=O)N(CCCCCC(=O)O)C(Cc2ccccc2)C(O)C(O)C1Cc1ccccc1 (centres unmarked) [Example 12G]
- IC90 (HIV-1 (RF) in MT-2 cells; [2]): < 10 µg/mL
- Ki [1, 3]: < 0.01 µM

SMILES: NCCCCCCN1C(=O)N(Cc2ccccc2)C(Cc2ccccc2)C(O)C(O)C1Cc1ccccc1 (centres unmarked) [Example 12B]
- IC90 (HIV-1 (RF) in MT-2 cells; [2]): > 100 µg/mL
- Ki [1, 3]: 0.01 to 1 µM

SMILES: NC(=NO)c1cc(CN2C(=O)N(Cc3ccc(F)c(C(N)=NO)c3)C(Cc3ccccc3)C(O)C(O)C2Cc2ccccc2)ccc1F (centres unmarked) [15EF]
- IC90 (HIV-1 (RF) in MT-2 cells; Table 2d, HIV RNA assay): +++ (+++=<10 μg/mL)
- Ki [1, 4]: < 0.01 µM

SMILES: O=C1Nc2ccc(CN3C(=O)N(Cc4ccc5c(c4)C(=NO)C(=O)N5)C(Cc4ccccc4)C(O)C(O)C3Cc3ccccc3)cc2C1=NO (centres unmarked) [15DB]
- IC90 (HIV-1 (RF) in MT-2 cells; Table 2d, HIV RNA assay): +++ (+++=<10 μg/mL)
- Ki [1, 4]: < 0.01 µM

SMILES: Nc1ccc(CC2C(O)C(O)C(Cc3ccccc3N)N(CC3CC3)C(=O)N2CC2CC2)cc1 (centres unmarked) [Example 20E]
- IC90 (HIV-1 (RF) in MT-2 cells; Human immunodeficiency virus 1, MT2, Table 2i, read-out: IC90): < 10 µg/mL
- Ki ([1]; read-out: HPLC Ki, Table 2i): < 0.01 µM

SMILES: CCC(=NO)c1cccc(CN2C(=O)N(Cc3cccc(C(CC)=NO)c3)C(Cc3ccccc3)C(O)C(O)C2Cc2ccccc2)c1 (centres unmarked) [Example 15XP]
- IC90 (HIV-1 (RF) in MT-2 cells; [5]): < 10 µg/mL
- Ki [1, 6]: < 0.01 µM

SMILES: CCCNC(=NO)c1cccc(CN2C(=O)N(Cc3cccc(C(=NO)NCCC)c3)C(Cc3ccccc3)C(O)C(O)C2Cc2ccccc2)c1 (centres unmarked) [15BA]
- IC90 (HIV-1 (RF) in MT-2 cells; Table 2d, HIV RNA assay): +++ (+++=<10 μg/mL)
- Ki [1, 4]: < 0.01 µM

SMILES: O=C1N(Cc2cccc(C=NCCO)c2)C(Cc2ccccc2)C(O)C(O)C(Cc2ccccc2)N1Cc1cccc(C2NCCO2)c1 (centres unmarked) [Example 9K]
- IC90 (HIV-1 (RF) in MT-2 cells; Table 2d, class symbols): +++ (+++=<10 μg/mL)
- Ki [1, 7]: 0.01 to 1 µM

SMILES: Nc1cccc(CN2C(=O)N(Cc3ccc4ccccc4c3)C(Cc3ccccc3)C(O)C(O)C2Cc2ccccc2)c1 (centres unmarked) [15WU]
- IC90 (HIV-1 (RF) in MT-2 cells; [2]): < 10 µg/mL
- Ki [1, 3]: < 0.01 µM

SMILES: O=C1N(CC2CC2)C(Cc2ccccc2)C(O)C(O)C(Cc2ccccc2)N1CC1CC1 (centres unmarked) [Example 13J]
- IC90 (HIV-1 (RF) in MT-2 cells; Table 2d, class symbols): +++ (+++=<10 μg/mL)
- Ki [1, 7]: < 0.01 µM

SMILES: CNc1cccc(CN2C(=O)N(Cc3ccc(CO)cc3)C(Cc3ccccc3)C(O)C(O)C2Cc2ccccc2)c1 (centres unmarked) [15M]
- IC90 (HIV-1 (RF) in MT-2 cells; [2]): < 10 µg/mL
- Ki [1, 3]: < 0.01 µM

SMILES: O=S1(=O)N(Cc2ccc3ccccc3c2)C(Cc2ccccc2)C(O)C(O)C(Cc2ccccc2)N1Cc1ccc2ccccc2c1 (centres unmarked) [23H]
- IC90 (HIV-1 (RF) in MT-2 cells; Table 2m): +++ (+++=<10 μg/mL)
- Ki ([1]; Table 2m, read-out: HPLC Ki): < 0.01 µM

SMILES: CCN(CC)Cc1cccc(CN2C(=O)N(Cc3cccc(CN(CC)CC)c3)C(Cc3ccccc3)C(O)C(O)C2Cc2ccccc2)c1 (centres unmarked) [Example 15XF]
- IC90 (HIV-1 (RF) in MT-2 cells; [5]): < 10 µg/mL
- Ki [1, 6]: 0.01 to 1 µM

SMILES: CC(=O)OCCCCCCN1C(=O)N(CCCCCCO)C(Cc2ccccc2)C(O)C(O)C1Cc1ccccc1 (centres unmarked) [Example 12V]
- IC90 (HIV-1 (RF) in MT-2 cells; [2]): < 10 µg/mL
- Ki [1, 3]: 0.01 to 1 µM

SMILES: CCC(CN1C(=O)N(CC(CC)=NO)C(Cc2ccccc2)C(O)C(O)C1Cc1ccccc1)=NO (centres unmarked) [Example 15VP]
- IC90 (HIV-1 (RF) in MT-2 cells; [2]): 10 to 100 µg/mL (≈ 20.1 to 201 µM)
- Ki [1, 3]: 0.01 to 1 µM

SMILES: O=C1N(CCCCCCO)C(Cc2ccccc2)C(O)C(O)C(Cc2ccccc2)N1Cc1ccc2ccccc2c1 (centres unmarked) [Example 15VQ]
- IC90 (HIV-1 (RF) in MT-2 cells; [2]): < 10 µg/mL
- Ki [1, 3]: < 0.01 µM

SMILES: O=C1N(Cc2cccc([N+](=O)[O-])c2)C(Cc2ccccc2)C(O)C(O)C(Cc2ccccc2)N1CC1CC1 (centres unmarked) [15H]
- IC90 (HIV-1 (RF) in MT-2 cells; [2]): < 10 µg/mL
- Ki [1, 3]: < 0.01 µM
